According to US20230242473A1, “THYROMIMETICS” (Autobahn Therapeutics, Inc., priority 2020, published 2023):

Target: T1, recombinant human FAAH (rhFAAH) (Homo sapiens, UniProt O00519)
T1 construct: purchased Cayman Chemical (Ann Arbor, Mich., USA)
T1 sequence (O00519 1-579): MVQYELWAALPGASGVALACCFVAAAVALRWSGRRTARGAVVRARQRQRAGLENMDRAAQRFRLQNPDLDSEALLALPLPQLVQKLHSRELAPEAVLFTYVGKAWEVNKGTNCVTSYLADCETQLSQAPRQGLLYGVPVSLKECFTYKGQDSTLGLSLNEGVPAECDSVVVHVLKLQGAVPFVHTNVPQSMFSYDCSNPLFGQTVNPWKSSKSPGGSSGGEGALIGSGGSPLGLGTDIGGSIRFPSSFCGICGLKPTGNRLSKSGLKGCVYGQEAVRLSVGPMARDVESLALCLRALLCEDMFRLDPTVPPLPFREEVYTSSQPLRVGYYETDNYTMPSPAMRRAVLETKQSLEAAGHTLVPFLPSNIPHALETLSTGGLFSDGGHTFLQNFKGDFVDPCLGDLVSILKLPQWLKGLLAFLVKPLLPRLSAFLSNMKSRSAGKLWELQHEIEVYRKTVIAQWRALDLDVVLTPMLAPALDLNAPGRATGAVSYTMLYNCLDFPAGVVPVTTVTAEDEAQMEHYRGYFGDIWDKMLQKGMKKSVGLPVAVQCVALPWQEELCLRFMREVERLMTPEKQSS
Test: FAAH substrate evaluation (formation of acid metabolite, LC-MS/MS)
Type: in vitro ADME
Conditions: 0.5 ng/μL rhFAAH, 1 μM test compound, pH 8.0, room temperature, 0-60 minutes
Experimental: Purified recombinant human FAAH (rhFAAH) was purchased from Cayman Chemical (Ann Arbor, Mich., USA). The total volume for each incubation was 400 μL containing a final 0.5 ng/μL rhFAAH, 1 μM test compound, 1.25% ethanol or 1 μM PF-3845 (FAAH inhibitor), and 0.1% bovine serum albumin in Tris-EDTA buffer at pH 8.0). The positive control was LL-341001. The incubation was conducted at the room temperature. At 0, 5, 15, 30 and 60 minutes, an aliquot of 30 μL reaction mixtures was removed and mixed with 300 μL acetonitrile containing 5 ng/mL terfenadine and 10 ng/mL tolbutamide as internal standards to quench the reaction. The resulting mixture was centrifuged at 4000 rpm, 4° C. for 15 minutes, and 100 μL supernatant was ready for LC-MS/MS analysis to measure the formation of acid metabolite.
Acquity Ultra Performance LC system from Waters was used for sample analysis. The chromatography was performed on a reverse phase Kinetex 2.6 μm C18 column, 2.1×30 mm, 100 Å. The mobile phase A comprised of 0.10% formic acid in water and mobile phase B comprised of 0.1% formic acid in acetonitrile with a 2-min run time at the flow rate of 0.8 mL/min for the acid metabolite from positive control or a 1.5 min run time at the flow rate of 0.9 mL/min for the acid metabolite of test compounds. The mass spectrometer (API-5500 and API Q Trap 4000 Applied Biosystems/MDS SCIEX Instruments, Framingham, Mass., USA) was operated under ESI positive or negative ion MRM mode.
The formation of acid metabolite was monitored and quantified using one calibration point of 1 μM. The observed rate constant (ke) for the acid metabolite formation was calculated by plotting the metabolite concentration versus time of incubation with the slope being ke and is shown in Table 4.

| Compound | ke, observed rate constant for the acid metabolite formation |
| --- | --- |
| CNC(=O)COc1ccc(Cc2ccc(O)c(C(C)C)c2F)c(C(C)C)c1 [Compound 43, 2-(4-(2-fluoro-4-hydroxy-3-isopropylbenzyl)-3-isopropylphenoxy)-N-methylacetamide] | A (A = ke is less than 2.0 and more than or equal to 0.05) |
| CNC(=O)COc1cc(C(C)C)c(Cc2ccc(O)c(C(C)C)c2)cc1F [Compound 47, 2-(2-fluoro-4-(4-hydroxy-3-isopropylbenzyl)-5-isopropylphenoxy)-N-methylacetamide] | A (A = ke is less than 2.0 and more than or equal to 0.05) |
| CC(C)c1cc(Cc2cc(F)c(OCC(=O)N(C)C)cc2C(C)C)ccc1O [Compound 48, 2-(2-fluoro-4-(4-hydroxy-3-isopropylbenzyl)-5-isopropylphenoxy)-N,N-dimethylacetamide] | A (A = ke is less than 2.0 and more than or equal to 0.05) |
